From paper PMC11476419, “Analysis of Punicalin and Punicalagin Interaction with PDIA3 and PDIA1” (International Journal of Molecular Sciences, 2024)

Legend:
U87 MG cells = assay: Cell viability by MTT assay; format: cell-based, human; conditions: 1 µM to 20 µM, 24 h, 48 h, 72 h
Method: (§1) The cell viability assay was used to evaluate the effect of punicalin as a PDI inhibitor. T98G and U87 MG glioblastoma cell lines were treated with increasing concentrations of punicalin, and the reduction in MTT substrate was determined after 24 h, 48 h, and 72 h. […] Here, we compared the ability of punicalin with that of punicalagin to prevent the growth of these cells (Figure 5).
(§2) T98G and U-87 MG cells were seeded into 96-well plates (10.000 cells/well). The effect of punicalin, at the final concentration of 1 µM to 20 µM, was evaluated on cell viability after 24 h and 48 h of incubation. To assess cell viability, the enzymatic reduction of MTT (3-(4,5-dimethylthiazol-2-yl)-2,5-diphenyl-2H-tetrazolium bromide) (Sigma-Aldrich, Milan, Italy, cat. M2128) to MTT formazan was used. Cell cultures were further incubated for 2 h in culture medium containing 0.5 mg/mL MTT. After 2 h of incubation, the solution was removed and the blue MTT formazan product was dissolved in DMSO (Sigma-Aldrich, cat. D8418). After 30 min at room temperature, the absorbance of the formazan solution was spectrophotometrically read at 570 nm using an Appliskan® plate reader (Thermo Fisher Scientific, Monza, Italy).

T98G cells = assay: Cell viability by MTT assay; format: cell-based, human
Method: as §1, §2

PDIA3 = biological target: T1, PDIA3 (Homo sapiens, UniProt P30101); assay: Differential scanning fluorimetry (protein thermal shift); format: binding
T1 construct: The mature recombinant form (devoid of the N-terminal presence) of the human PDIA3 protein was expressed and purified; made in house
T1 sequence (P30101 25-505): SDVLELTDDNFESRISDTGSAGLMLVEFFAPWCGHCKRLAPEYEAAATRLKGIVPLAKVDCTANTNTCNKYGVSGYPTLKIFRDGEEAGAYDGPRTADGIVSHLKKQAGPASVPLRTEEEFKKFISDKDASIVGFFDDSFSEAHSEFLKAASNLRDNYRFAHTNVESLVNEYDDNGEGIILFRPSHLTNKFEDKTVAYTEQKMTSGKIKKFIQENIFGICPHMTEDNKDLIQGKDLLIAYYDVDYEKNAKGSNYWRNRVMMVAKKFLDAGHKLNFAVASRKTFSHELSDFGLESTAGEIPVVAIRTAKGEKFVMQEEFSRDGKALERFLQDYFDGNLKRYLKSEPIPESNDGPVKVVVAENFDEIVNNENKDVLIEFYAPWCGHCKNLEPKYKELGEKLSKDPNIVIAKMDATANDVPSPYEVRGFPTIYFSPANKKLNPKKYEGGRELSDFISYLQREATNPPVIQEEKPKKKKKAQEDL
Method: (§3) The effect of punicalin and punicalagin on the stability of both proteins was evaluated by differential scanning fluorimetry (DSF). Initially, PDIA1 and PDIA3 were incubated at 25 °C for 20 min with both substances at 5 µM and 20 µM concentrations. […] The reading was optimized at intervals of 0.2 °C every 5 s. Once the fluorescence profile was obtained, the data were analyzed with the GraphPad prism program, by either fitting data with a Boltzmann equation or calculating the first derivative. In DSF analyses, a gradual increase in fluorescence is observed, due to a conformational change in the protein, which reaches a maximum value and then decreases because of protein precipitation.
(§4) To evaluate Tm, we focused the attention on the main transition, and thus we fitted, with a Boltzmann equation, the data in the range of 25–55 °C for PDIA3 and in the range of 45–70 °C for PDIA1. Again, the two substances show a destabilizing effect, which was more evident for PDIA3 than for PDIA1. In fact, punicalagin and punicalin at a 20 µM concentration cause a shift of Tm of at least 6 °C in the case of PDIA3, while this is approximately 3 °C for PDIA1 (Figure 7).
(§5) Protein stability in the absence and presence of punicalagin/punicalin was tested by means of the fluorescence-based thermal stability assay or differential scanning fluorimetry (DSF) developed by Pantoliano and coworkers. DSF records the fluorescence emission signal from the binding of a dye (SYPRO orange) to the exposed hydrophobic patches upon protein unfolding. Fluorescence measurements were performed using a CFX96 Connect RT-PCR instrument (BioRad, Hercules, CA, USA). Aliquots of 18 μL of protein solution (2 μM), freshly diluted in Tris Buffered saline (50 mM TrisHCl, pH 8.0, 150 mM NaCl) containing 0.1 mM DTT, 0.2 mM EDTA, and 1: 1000 dilution of SYPRO Orange (50 mM stock solution in DMSO), were distributed in a 96-well plate. Sample wells were added with punicalagin or punicalin at a final concentration of 5 uM or 20 μM by adding 2 μL of a 10-fold concentrated freshly prepared stock solution. As control, the protein solution was added with 2 μL of the dilution buffer. A melting point analysis was recorded by increasing the temperature from 25 to 70 °C with an increment of 0.2 °C every 5 s and reading, at each temperature, the fluorescence in fluorescence resonance energy transfer mode (FRET). Each measure was the average of three sample well readings, and each DSF experiment was repeated at least three times. To calculate Tm values, DSF data from the melting curve were exported and fitted to a Boltzmann equation using GraphPad software. The effect of punicalagin and punicalin was evaluated comparing the Tm values in the presence and absence of each molecule.

PDIA1 = biological target: T2, PDIA1 (Homo sapiens, UniProt P07237); assay: as above; format: binding; conditions: PDIA1, compound 20 µM
T2 construct: The mature human PDIA1 with an N-terminal His6x-tag was expressed and purified; His6 (N); made in house
T2 sequence (P07237 18-508): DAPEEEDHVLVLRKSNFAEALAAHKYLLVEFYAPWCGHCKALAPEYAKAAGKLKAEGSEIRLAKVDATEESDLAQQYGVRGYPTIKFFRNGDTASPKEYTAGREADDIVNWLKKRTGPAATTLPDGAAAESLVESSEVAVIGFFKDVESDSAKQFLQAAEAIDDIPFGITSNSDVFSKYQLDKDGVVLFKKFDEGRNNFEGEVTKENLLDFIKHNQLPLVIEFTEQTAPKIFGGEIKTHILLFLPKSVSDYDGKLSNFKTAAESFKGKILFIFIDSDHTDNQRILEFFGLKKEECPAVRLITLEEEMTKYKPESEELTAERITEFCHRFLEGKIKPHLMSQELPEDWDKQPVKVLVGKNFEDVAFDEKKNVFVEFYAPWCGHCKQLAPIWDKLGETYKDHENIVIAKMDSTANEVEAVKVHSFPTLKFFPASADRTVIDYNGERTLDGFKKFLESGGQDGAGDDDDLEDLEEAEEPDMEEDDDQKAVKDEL
Method: as §3, §4, §5

O=C1OC[C@H]2OC(O)[C@H](O)[C@@H](O)[C@@H]2OC(=O)c2cc(O)c(O)c(O)c2-c2c(O)c(O)c3oc(=O)c4c(c(O)c(O)c5oc(=O)c2c3c54)-c2c1cc(O)c(O)c2O (mixture of isomers) [Punicalin, punicalin]
effect on cell viability (MTT) (U87 MG cells): the effect becomes evident only at the highest concentration | effect on cell viability (MTT) (T98G cells; 1 µM to 20 µM, 24 h, 48 h, 72 h): concentration- and time-dependent decrease in cell viability | effect on cell viability (T98G cells; 20 µM): significantly reduced the cell viability | left shift of first transition (first-derivative graph) (PDIA3; PDIA3, compound 20 µM): about 3 °C | shift towards lower temperature of second transition (first-derivative graph) (PDIA3; PDIA3, compound 20 µM): more than 10 °C | shift of Tm (destabilizing, Boltzmann fit) (PDIA3; PDIA3, compound 20 µM, fit range 25–55 °C): at least 6 °C | Tm of PDIA3 after addition of compound (PDIA3; PDIA3 alone Tm 46 °C): below 40 °C | change in the thermal stability of PDIA3, shift (PDIA3; abstract statement): up to 8 °C | shift towards lower temperature of second main transition (first-derivative graph) (PDIA1): about 5 °C | shift of Tm (destabilizing, Boltzmann fit) (PDIA1; fit range 45–70 °C): approximately 3 °C
